This experiment deals with T1, Acetylcholinesterase (Mus musculus, UniProt P21836).
T1 sequence (P21836 whole entry): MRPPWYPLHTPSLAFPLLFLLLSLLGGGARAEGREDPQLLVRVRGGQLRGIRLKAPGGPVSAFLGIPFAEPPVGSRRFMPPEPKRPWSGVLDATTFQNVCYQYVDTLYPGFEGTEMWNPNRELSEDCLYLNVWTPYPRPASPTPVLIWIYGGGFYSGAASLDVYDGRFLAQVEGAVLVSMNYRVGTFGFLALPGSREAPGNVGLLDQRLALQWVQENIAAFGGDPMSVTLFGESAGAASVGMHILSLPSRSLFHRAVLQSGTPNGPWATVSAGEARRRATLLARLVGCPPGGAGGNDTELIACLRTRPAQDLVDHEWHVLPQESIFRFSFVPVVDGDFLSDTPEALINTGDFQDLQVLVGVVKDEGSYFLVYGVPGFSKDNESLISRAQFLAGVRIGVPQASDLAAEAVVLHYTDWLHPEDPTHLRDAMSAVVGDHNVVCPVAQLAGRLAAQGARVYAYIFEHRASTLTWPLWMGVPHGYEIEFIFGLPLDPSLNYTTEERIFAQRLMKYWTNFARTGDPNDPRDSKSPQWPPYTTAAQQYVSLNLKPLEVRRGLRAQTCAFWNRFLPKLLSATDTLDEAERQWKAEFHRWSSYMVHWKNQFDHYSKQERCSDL

SMILES strings stand for the structures.

Description: Inhibition against Acetylcholinesterase (AChE)

For the compound `O=C(NCCC1CCN(CCc2ccccc2)CC1)c1ccccc1`, the IC50 was 13 µM.
